Results from PMC5372986, “Diminished Antimicrobial Peptide and Antifungal Antibiotic Activities against Candida albicans in Denture Adhesive” (Antibiotics, 2017).
Where a name gives a salt, the structure may show the parent alone. Read-outs that look alike come from different tables or passages of the source.

Assays:
Candida albicans = settings: broth microdilution, p < 0.05; cited from earlier work
Source text: Candida species infections can cause complications for individuals with dentures, such as denture stomatitis.

C. albicans HMV4C = assay: microbe, parasite or virus in culture; settings: radial diffusion; for Activity in gels with 1.0% denture adhesive compared with gels without / Minimal inhibitory concentration (MIC): C. albicans HMV4C; for Activity in gels with 1.0% denture adhesive compared with gels without: result in words, Tukey HSD, 0.05 level; for MIC: Candida albicans, HMV4C; for MIC / Minimal inhibitory concentration (MIC): mean (standard error, n = 3)
Description: (§1) C. albicans strains ATCC 64124 and HMV4C were used and cultivated as previously described. Their identities were verified (State Hygienic Laboratory, University of Iowa Research Park, Coralville, IA, USA). These cultures were adjusted to contain 1.2–3.7 × 10^6 CFU/mL in Roswell Park Memorial Institute (RPMI) 1640 medium.
(§2) The denture adhesive used was a standard, over-the-counter gel containing poly sodium-calcium mixed partial salt, petrolatum, cellulose gum, and mineral oil and was prepared as previously described. Denture adhesive was too viscous to use directly and was diluted to 1.0% for incorporation into the radial diffusion assay.
(§3) Each agent was reconstituted in distilled water with 0.01% acetic acid for resuspension to keep the agent in solution. Two-fold dilutions were prepared.
(§4) The radial diffusion assays were performed as described with the following unique modifications. Underlay agarose gels were prepared with and without 1.0% denture adhesive in square petri dishes (Electron Microscopy Sciences, Hatfield, PA, USA). Plates without 1.0% adhesive contained 12.5 mL of 10.0 mM sodium phosphate buffer adjusted to pH 7.4, 12.5 mL of 2.0% agarose (Agarose LE, Roche Diagnostics Corporation, Indianapolis, IN, USA) in 10.0 mM sodium phosphate adjusted to pH 7.4, and 1.0 mL of C. albicans culture per plate. Plates with 1.0% adhesive contained 12.5 mL of 2.0% dental adhesive in 10.0 mM sodium phosphate adjusted to pH 7.4, 12.5 mL 2.0% agarose (Agarose LE, Roche Diagnostics Corporation, Indianapolis, IN, USA) in 10.0 mM sodium phosphate adjusted to pH 7.4, and 1.0 mL of C. albicans culture. Wells of 2.0 mm in diameter were created and filled with 5.0 µL of AMP or antifungal antibiotic dilution (n = three replications per test). A blank of 0.01% acetic acid in distilled water was also included. The plates were incubated at 37 °C for 3 h. After incubation, 10.0 mL of overlay containing 1.0% agarose in 10.0 mM phosphate buffer with 6.0% RPMI 1640, was added to each plate. The plates were incubated at 37 °C overnight. At 24 h, antimicrobial activity was determined by measuring the zone of clearance around the center of each well and extrapolating MIC as described.
(§5) When MICs fell outside the range of the assay, we considered the MIC to be equal to the highest concentration used in the assay. […] One-way fixed-effects ANOVA models were fit to the µM MIC values. Pairwise group comparisons were conducted using the method of Tukey’s Honest Significant Differences (HSD). A 0.05 level was used to determine statistically significant differences. All analyses were conducted using JMP (Version 10.0, SAS, Cary, NC, USA).

C. albicans ATCC 64124 = assay: microbe, parasite or virus in culture; settings: radial diffusion; for Activity in gels with 1.0% denture adhesive compared with gels without / Minimal inhibitory concentration (MIC): C. albicans ATCC 64124; for Activity in gels with 1.0% denture adhesive compared with gels without: result in words, Tukey HSD, 0.05 level; for MIC: Candida albicans; for MIC / Minimal inhibitory concentration (MIC): mean (standard error, n = 3)
Description: as §1, §2, §3, §4, §5

[1] = 24 h, pH 7.4, read-out: Minimal inhibitory concentration (MIC), C. albicans HMV4C, Adhesive (1.0% denture adhesive in gel), pH 7.4, 37 °C, read at 24 h
[2] = 24 h, pH 7.4, read-out: Minimal inhibitory concentration (MIC), C. albicans HMV4C, No Adhesive, agarose in 10.0 mM sodium phosphate pH 7.4, 37 °C, read at 24 h
[3] = read-out: Minimal inhibitory concentration (MIC), C. albicans HMV4C, Adhesive (1.0% denture adhesive in gel)
[4] = read-out: Minimal inhibitory concentration (MIC), C. albicans HMV4C, No Adhesive
[5] = ATCC64124, 24 h, pH 7.4, read-out: Minimal inhibitory concentration (MIC), C. albicans ATCC 64124, Adhesive (1.0% denture adhesive in gel), pH 7.4, 37 °C, read at 24 h
[6] = ATCC64124, 24 h, pH 7.4, read-out: Minimal inhibitory concentration (MIC), C. albicans ATCC 64124, No Adhesive, pH 7.4, 37 °C, read at 24 h
[7] = ATCC64124, read-out: Minimal inhibitory concentration (MIC), C. albicans ATCC 64124, Adhesive (1.0% denture adhesive in gel)
[8] = ATCC64124, read-out: Minimal inhibitory concentration (MIC), C. albicans ATCC 64124, No Adhesive
[9] = Adhesive (1.0% denture adhesive in gel), pH 7.4, 37 °C, read at 24 h
[10] = Adhesive (1.0% denture adhesive in gel)
[11] = No Adhesive, agarose in 10.0 mM sodium phosphate pH 7.4, 37 °C, read at 24 h
[12] = No Adhesive, pH 7.4, 37 °C, read at 24 h

Compound	Loss of antimicrobial activity in 1.0% denture adhesive (Candida albicans)	Activity in gels with 1.0% denture adhesive compared with gels without (C. albicans HMV4C)	MIC (C. albicans HMV4C; [1])	MIC (C. albicans HMV4C; [2])	MIC (C. albicans HMV4C; [3])	MIC (C. albicans HMV4C; [4])	Activity in gels with 1.0% denture adhesive compared with gels without (C. albicans ATCC 64124)	MIC (C. albicans ATCC 64124; [5])	MIC (C. albicans ATCC 64124; [6])	MIC (C. albicans ATCC 64124; [7])	MIC (C. albicans ATCC 64124; [8])	Minimal inhibitory concentration (MIC) (C. albicans HMV4C; [9])	Minimal inhibitory concentration (MIC) (C. albicans HMV4C; [10])	Minimal inhibitory concentration (MIC) (C. albicans HMV4C; [11])	Minimal inhibitory concentration (MIC) (C. albicans HMV4C; No Adhesive)	Minimal inhibitory concentration (MIC) (C. albicans ATCC 64124; [9])	Minimal inhibitory concentration (MIC) (C. albicans ATCC 64124; [10])	Minimal inhibitory concentration (MIC) (C. albicans ATCC 64124; [12])	Minimal inhibitory concentration (MIC) (C. albicans ATCC 64124; No Adhesive)
[H]/N=C(\N/C(=N/[H])NCCCCCCNC(=N)NC(=N)Nc1ccc(Cl)cc1)Nc1ccc(Cl)cc1 [Chlorhexidine dihydrochloride]	did not	same	11.1 µg/mL	5.7 µg/mL	19.2 µM	9.9 µM	same	4.6 µg/mL	6.9 µg/mL	8 µM	11.9 µM								
C[C@@H]1[C@H](O)[C@@H](C)/C=C/C=C/CC/C=C/C=C/C=C/C=C/C(O[C@H]2O[C@H](C)[C@@H](O)[C@H](N)[C@@H]2O)CC2O[C@](O)(CC(O)C(O)CCC(O)CC(O)CC(O)CC(=O)O[C@H]1C)CC(O)C2C(=O)O (some centres unmarked) [Nystatin]	did not	diminished					diminished					137.2 (8.2) µg/mL	148.1 (8.9) µM	9.4 (0.2) µg/mL	10.2 (0.2) µM	61.0 (2.5) µg/mL	65.9 (2.7) µM	9.7 (0.2) µg/mL	10.5 (0.2) µM
CC[C@H](C)[C@@H]1NC(=O)[C@H](CO)NC(=O)[C@@H]2CCCN2C(=O)[C@H](C)NC(=O)CNC(=O)[C@H](CC(C)C)NC(=O)[C@H](CCCCN)NC(=O)[C@H](CCCCN)NC(=O)[C@H](CCSC)NC(=O)[C@H](CCCNC(=N)N)NC(=O)[C@H](Cc2c[nH]c3ccccc23)NC(=O)[C@H](CCC(N)=O)NC(=O)[C@H](Cc2c[nH]c3ccccc23)NC(=O)[C@H](CCCNC(=N)N)NC(=O)[C@H](CCCNC(=N)N)NC(=O)[C@@H](NC(=O)[C@H](CCCCN)NC(=O)[C@@H](N)Cc2ccccc2)CSSC[C@@H](C(=O)N[C@H](C(=O)N[C@@H](CCCNC(=N)N)C(=O)N[C@@H](CCCNC(=N)N)C(=O)N[C@@H](C)C(=O)N[C@@H](Cc2ccccc2)C(=O)O)C(C)C)NC(=O)[C@H]([C@@H](C)O)NC1=O [Lactoferricin B]	lost antimicrobial activity	diminished activity					diminished activity												
N=C(NCCCCCCNC(=N)NC(=N)Nc1ccc(Cl)cc1)NC(=N)Nc1ccc(Cl)cc1.O=C(O)[C@H](O)[C@@H](O)[C@H](O)[C@H](O)CO.O=C(O)[C@H](O)[C@@H](O)[C@H](O)[C@H](O)CO [Chlorhexidine gluconate]	did not	same antimicrobial activity					diminished antimicrobial activity					0.7 (0.4) µg/mL	0.8 (0.4) µM	6.3 (0.1) µg/mL	7.0 (0.1) µM	81.6 (3.2) µg/mL	90.9 (3.6) µM	4.1 (0.2) µg/mL	4.6 (0.2) µM
C[C@@H]1[C@H](O)[C@@H](C)/C=C/C=C/C=C/C=C/C=C/C=C/C=C/[C@H](O[C@@H]2O[C@H](C)[C@@H](O)[C@H](N)[C@@H]2O)C[C@@H]2O[C@](O)(C[C@@H](O)C[C@@H](O)[C@H](O)CC[C@@H](O)C[C@@H](O)CC(=O)O[C@H]1C)C[C@H](O)[C@H]2C(=O)O [Amphotericin B]	did not	same	6.2 µg/mL	5.4 µg/mL	6.7 µM	5.8 µM	same	16.6 µg/mL	6 µg/mL	18 µM	6.5 µM								
